Test results reported in patent publication US10351500B2, “Method of using of dihydro-resveratrol or its stilbenoid derivatives and/or chemical variants as antimicrobial agents” (Hong Kong Baptist University, priority 2015, dated 2019).

What was measured:
[1] = system: human embryonic kidney HEK293 cell line; test: MTT cell viability assay, HEK293; assay type: cell-based
Description: (§1) The human colorectal carcinoma HCT-116 cell line, human pancreatic ductal adenocarcinoma PANC-1 cell line, human melanoma A375 cell line and human embryonic kidney HEK293 cell line were purchased from the American Type Culture Collection. Cells were cultured in high glucose DMEM growth medium supplemented with 10% fetal bovine serum, penicillin and streptomycin (100 U) in a humidified atmosphere of 5% CO2, 95% air at 37° C. Upon the addition of dihydro-resveratrol (D-res) to the HCT-116, PANC-1, A375 or HEK293 cells seeded at a density of 8000 cells per well in a 96-well plate format, the viability of the testing cells was determined 24 h post treatment using the (3-(4,5-dimethylthiazol-2-yl)-2,5-diphenyltetrazolium bromide) tetrazolium (MTT) reduction assay and expressed as growth inhibition of 50% (GI50, Table 6).

[2] = system: skin color at the arms of individual human subjects; test: skin colorimeter ITA° measurement after topical stilbenoid solution; assay type: in vivo
Description: To determine the skin color of the individual human subjects, the initial skin conditions at the arms of the individuals are tested by the skin colorimeter MPA 5 on day 0. The individual typology angle (ITA°) is calculated by the colorimeter based on the luminance (L*) and yellow-blue component (b*) values. The greater the ITA° value, the greater the skin whiteness [S. Del Bino and F. Bernerd. Variations in skin colour and the biological consequences of ultraviolet radiation exposure. British Journal of Dermatology 2013; 169 (Suppl. 3), 33-40]. In fact, skin colors are classified into 6 major divisions: very light, light, intermediate, tan, brown and dark as listed in Table 4. Two areas (2 cm×2 cm each) are selected as treated areas whereas regions surrounding the treated areas on the arms are regarded as control areas. A volume of 200 μL of the testing stilbenoids (2% by weight dissolved in ethanol) is applied to the designated area twice a day, day and night. At the end of the first week (day 7), individuals are tested with the skin colorimeter for recording the data about using the stilbenoids for 7 days. Again, at the end of the second week (day 14), individuals are tested with the skin colorimeter for recording the data about using the stilbenoids for 14 days.

[3] = ABTS radical decolorization assay (antioxidant capacity); assay type: biochemical; details: 15 min, 734 nm
[4] = system: human melanoma A375 cell line; test: MTT cell viability assay, A375; assay type: cell-based; details: A-375, 24 h
Description: as §1

[5] = system: human pancreatic ductal adenocarcinoma PANC-1 cell line; test: MTT cell viability assay, PANC-1; assay type: cell-based; details: PANC-1 pancreatic ductal adenocarcinoma, 24 h
Description: as §1

[6] = system: Trichophyton rubrum; test: anti-fungal growth inhibition, T. rubrum; assay type: cell-based; details: Trichophyton rubrum, 168 h
[7] = system: PANC-1 human pancreatic ductal adenocarcinoma cells; test: cell migration assay, PANC-1; assay type: cell-based; details: PANC-1, 25 μM, 24-h treatment
[8] = system: human colorectal carcinoma HCT-116 cell line; test: MTT cell viability assay, HCT-116; assay type: cell-based; details: HCT-116 colorectal carcinoma, 24 h
Description: as §1

[9] = system: Trichophyton mentagrophytes; test: anti-fungal growth inhibition, T. mentagrophytes; assay type: cell-based; details: Trichophyton mentagrophytes, 168 h
[10] = system: cerulein-induced chronic pancreatitis; test: cerulein-induced chronic pancreatitis in mice, oral treatment; assay type: in vivo, C57/BL6 mice
Description: Evaluation of biological activities. C57/BL6 mice aged 28 days weighing in the range of 20 to 25 g were randomly assigned into 4 groups of 6 to 8 individuals. The mice were housed with an ambient temperature of 23±2° C., a relative humidity of 60 to 80% and a 12-h light/dark cycle. Prior to the glucose tolerance test, the mice were starved overnight but allowed with free access to water. Experimental chronic pancreatitis was induced in the mice by four hourly i.p. injections of cerulein at the supramaximally stimulating dose (50 μg/kg) a day, 3 days a week, in a total of 6 weeks. The control group received injections of 0.9% saline instead of cerulein in the same volume and at same time intervals. The treatment groups given with cerulein and oral doses of dihydro-resveratrol (20 mg/kg/day) were designated as Cer+D-res. […] Thus, it concludes that an effective dosage of dihydro-resveratrol is at least 20 mg/kg/day. […] At the end of the 6-week experiment, mice were subjected to the intraperitoneal glucose tolerance test (IPGTT). Mice had been starved for 14 hours prior to the IPGTT, in which a 15% (w/v) glucose solution was injected to individual animals at 1.5 g glucose per kg body weight. About 1 μL of blood will be obtained from the tail vein, and blood glucose levels were monitored 30 min before (i.e. fasting level) and 10, 20, 30 and 60 min after glucose injection using a glucometer (Medisign, Korea). Upon scarification, pancreases were immediately removed, weighed, trimmed from fat and fixed in 4% paraformaldehyde-phosphate buffered saline overnight at 4° C. Samples were then processed, embedded in paraffin wax, sectioned and subjected to immunostaining.

[11] = read-out: Inhibition rate (25 μM)
[12] = read-out: Inhibition rate (50 μM)
[13] = read-out: Inhibition rate (100 μM)

Compound: Oc1ccc(CCc2cc(O)cc(O)c2)cc1 [Dihydro-resveratrol, trans-3,5,4′-trihydroxybibenzyl]
- GI50 ([1]; Homo sapiens, HEK293 embryonic kidney (serves as normal control), 24 h, MTT): 244.1 ± 0.96 µM
- selectivity implied by GI50 values (carcinoma cells vs HEK293) ([1]; Table 6): selectivity towards carcinoma cells
- whitening effect on skin ([2]; 2% by weight in ethanol, topical twice a day, most individuals): Overt whitening effect
- ITA° measurement ([2]; Individual No. 1, day 7, 2% solution topical): 49.0 ± 1.732 °
- ITA° measurement ([2]; Individual No. 1, day 14, 2% solution topical): 52.4 ± 1.166 °
- ITA° measurement ([2]; Individual No. 2, day 7, 2% solution topical): 41.1 ± 3.391 °
- ITA° measurement ([2]; Individual No. 2, day 14, 2% solution topical): 49.8 ± 4.630 °
- ITA° measurement ([2]; Individual No. 3, day 7, 2% solution topical): 35.0 ± 1.000 °
- ITA° measurement ([2]; Individual No. 3, day 14, 2% solution topical): 33.8 ± 0.837 °
- ITA° measurement ([2]; Individual No. 4, day 7, 2% solution topical): 26.8 ± 2.371 °
- ITA° measurement ([2]; Individual No. 4, day 14, 2% solution topical): 35.2 ± 2.103 °
- ITA° measurement ([2]; Individual No. 5, day 7, 2% solution topical): 25.6 ± 1.817 °
- ITA° measurement ([2]; Individual No. 5, day 14, 2% solution topical): 27.8 ± 1.934 °
- ITA° measurement ([2]; Individual No. 6, day 7, 2% solution topical): 26.4 ± 2.649 °
- ITA° measurement ([2]; Individual No. 6, day 14, 2% solution topical): 34.6 ± 0.927 °
- ITA° measurement ([2]; Individual No. 7, day 7, 2% solution topical): 21.2 ± 0.837 °
- ITA° measurement ([2]; Individual No. 7, day 14, 2% solution topical): 23.8 ± 2.634 °
- ITA° measurement ([2]; Individual No. 8, day 7, 2% solution topical): 14.0 ± 2.345 °
- ITA° measurement ([2]; Individual No. 8, day 14, 2% solution topical): 16.2 ± 1.483 °
- ITA° measurement ([2]; Individual No. 9, day 7, 2% solution topical): −5.2 ± 0.837 °
- ITA° measurement ([2]; Individual No. 9, day 14, 2% solution topical): −2.2 ± 0.447 °
- Trolox equivalent (mg), antioxidant capacity [3]: 4969.611 mg
- GI50 [4]: 107 ± 3.37 µM
- GI50 [5]: 116 ± 3.09 µM
- inhibition at 25 µM [6, 11]: 2.75%
- inhibition at 50 µM [6, 12]: 6.84%
- inhibition at 100 µM [6, 13]: 22.5%
- migratory ability [7]: significant reduction in the migratory ability
- GI50 [8]: 102 ± 5.21 µM
- inhibition at 25 µM [9, 11]: 4.52%
- inhibition at 50 µM [9, 12]: 15.3%
- inhibition at 100 µM [9, 13]: 30.8%
- fibrosis formation, 50 mg/kg/day versus 20 mg/kg/day [10]: no statistically significant difference
- pancreatic beta-cell area (insulin immunofluorescence) ([10]; 20 mg/kg/day oral): restoration of beta-cell area
- FN1 deposition in pancreatic parenchyma ([10]; 20 mg/kg/day oral, 3 weeks): reduces such deposition
- impaired glucose tolerance (IPGTT) ([10]; 20 mg/kg/day oral, 3 weeks): significantly rectified
- adverse effect ([10]; 50 mg/kg/day): no adverse effect
